Results published in patent publication US20120219615A1, “Therapeutic Use of a TLR Agonist and Combination Therapy” (The Trustees of the University of Pennsylvania, priority 2010, published 2012).

Test system: OVCAR5 cells
Experiment: OVCAR5 apoptosis by annexin-V and 7AAD staining
Type: cell-based, human
Method: Cell viability Annexin V/7AAD: To detect apoptosis, tumor cells were stained with annexin V/7AAD (BD Pharmingen #559763). Apoptotic cells were analyzed by flow cytometry according to the manufacturer's protocol. Briefly, OVCAR5 cells grown and subjected to different treatments were collected and pelleted at 1200 rpm and then washed twice with ice-cold PBS and re-suspended in a binding buffer (Pharmingen #51-66121 E) at a concentration of 1×10^6 cells/mL; 100 μL of the solution (1×10^5 cells) was transferred to each of two 5-mL culture tubes. Five μL of annexin V-PE (Pharmingen #51-65875Y) and added to each 100 μL solution, gently vortexed, incubated for 15 min at room temperature in the dark, washed with PBS, incubated with 5 μL of 7AAD (BD Pharmingen #51-68981E) for 10 minutes, and analyzed by FACS within 1 h.
Besides tumor-specific CTLs, TLR8 activation may also invoke innate anti-tumor responses, including the release of soluble mediators such as members of the TNF family, which can act directly on tumor cells to induce apoptosis. […] Expression of the TNFα receptor 1 (TNFR1) in OVCAR5 cells was tested and documented by Western blot (FIG. 5C). During the sensitivity test of OVCAR5 cells to TNFα, cells were incubated for 24 hours with 20 ng/ml of TNFα, a dose that exerts direct cytotoxic effects. […]

## TNFα
20 ng/ml TNFα, 24 hours
  TNFα-mediated apoptosis of OVCAR5 cells: resistant to TNFα-mediated apoptosis
PLD 1 μg/mL 24 h pre-incubation, then TNFα 20 ng/ml 12 h, or control media
  apoptosis of OVCAR5 cells: minimal apoptosis
